From ChEMBL document CHEMBL5512655, “Discovery of indolylacryloyl-derived oxacins as novel potential broad-spectrum antibacterial candidates” (Eur J Med Chem, 2024)
Converted amounts (≈) assume the structure as drawn.

Experiments:
Assay type in all cases: functional
Pseudomonas aeruginosa [1] = assay: Antibacterial activity against Pseudomonas aeruginosa ATCC 27853 assessed as inhibition of bacterial growth measured after 24 hrs incubation
Staphylococcus aureus [2] = assay: Antibacterial activity against Staphylococcus aureus assessed as inhibition of bacterial growth measured after 24 hrs incubation
Klebsiella pneumoniae = assay: Antibacterial activity against Klebsiella pneumonia assessed as inhibition of bacterial growth measured after 24 hrs incubation
Enterococcus faecalis = assay: Antibacterial activity against Enterococcus faecalis assessed as inhibition of bacterial growth measured after 24 hrs incubation
Escherichia coli [3] = assay: Antibacterial activity against Escherichia coli ATCC 25922 assessed as inhibition of bacterial growth measured after 24 hrs incubation
Escherichia coli [4] = assay: Antibacterial activity against Escherichia coli assessed as inhibition of bacterial growth measured after 24 hrs incubation
Staphylococcus aureus [5] = assay: Antibacterial activity against Staphylococcus aureus ATCC 25923 assessed as inhibition of bacterial growth measured after 24 hrs incubation
Staphylococcus aureus [6] = assay: Antibacterial activity against methicillin-resistant Staphylococcus aureus N315 assessed as inhibition of bacterial growth measured after 24 hrs incubation
Staphylococcus aureus [7] = assay: Antibacterial activity against Staphylococcus aureus ATCC 29213 assessed as inhibition of bacterial growth measured after 24 hrs incubation
Pseudomonas aeruginosa [8] = assay: Antibacterial activity against Pseudomonas aeruginosa assessed as inhibition of bacterial growth measured after 24 hrs incubation
Acinetobacter baumannii = assay: Antibacterial activity against Acinetobacter baumannii assessed as inhibition of bacterial growth measured after 24 hrs incubation

SMILES | MIC (Pseudomonas aeruginosa [1]) [µg/mL] | MIC (Staphylococcus aureus [2]) [µg/mL] | MIC (Klebsiella pneumoniae) [µg/mL] | MIC (Enterococcus faecalis) [µg/mL] | MIC (Escherichia coli [3]) [µg/mL] | MIC (Escherichia coli [4]) [µg/mL] | MIC (Staphylococcus aureus [5]) [µg/mL] | MIC (Staphylococcus aureus [6]) [µg/mL] | MIC (Staphylococcus aureus [7]) [µg/mL] | MIC (Pseudomonas aeruginosa [8]) [µg/mL] | MIC (Acinetobacter baumannii) [µg/mL]
CCn1cc(C(=O)O)c(=O)c2cc(F)c(N3CCN(C(=O)/C(C#N)=C/c4cn(CC5CCCCC5)c5ccccc45)CC3)cc21 | 1 (≈ 1.64 µM) | 32 (≈ 52.5 µM) | 1 (≈ 1.64 µM) | 32 (≈ 52.5 µM) | 4 (≈ 6.56 µM) | 1 (≈ 1.64 µM) | 16 (≈ 26.2 µM) | 16 (≈ 26.2 µM) | 1 (≈ 1.64 µM) | 2 (≈ 3.28 µM) | 1 (≈ 1.64 µM)
CCn1cc(C(=O)O)c(=O)c2cc(F)c(N3CCN(C(=O)/C(C#N)=C/c4cn(Cc5ccc(Cl)c(Cl)c5)c5ccccc45)CC3)cc21 | 1 (≈ 1.49 µM) | 16 (≈ 23.8 µM) | 1 (≈ 1.49 µM) | 32 (≈ 47.6 µM) | 32 (≈ 47.6 µM) | 8 (≈ 11.9 µM) | 64 (≈ 95.2 µM) | 4 (≈ 5.95 µM) | 64 (≈ 95.2 µM) | 2 (≈ 2.97 µM) | 64 (≈ 95.2 µM)
CCCCCCn1cc(C(=O)O)c(=O)c2cc(F)c(N3CCN(C(=O)/C(C#N)=C/c4cn(CC(=O)OCC)c5ccccc45)CC3)cc21 | 16 (≈ 24.4 µM) | 64 (≈ 97.6 µM) | 16 (≈ 24.4 µM) | 0.25 (≈ 0.381 µM) | 0.5 (≈ 0.763 µM) | 32 (≈ 48.8 µM) | 4 (≈ 6.1 µM) | 128 (≈ 195 µM) | 8 (≈ 12.2 µM) | 1 (≈ 1.53 µM) | 8 (≈ 12.2 µM)
CCCCCn1cc(/C=C(\C#N)C(=O)N2CCN(c3cc4c(cc3F)c(=O)c(C(=O)O)cn4CC)CC2)c2ccccc21 | 0.5 (≈ 0.857 µM) | 32 (≈ 54.8 µM) | 0.5 (≈ 0.857 µM) | 8 (≈ 13.7 µM) | 4 (≈ 6.85 µM) | 2 (≈ 3.43 µM) | 1 (≈ 1.71 µM) | 16 (≈ 27.4 µM) | 8 (≈ 13.7 µM) | 4 (≈ 6.85 µM) | 2 (≈ 3.43 µM)
CCn1cc(C(=O)O)c(=O)c2cc(F)c(N3CCN(C(=O)/C(C#N)=C/c4cn(CC(N)=O)c5ccccc45)CC3)cc21 | 1 (≈ 1.75 µM) | 32 (≈ 56.1 µM) | 1 (≈ 1.75 µM) | 16 (≈ 28 µM) | 0.25 (≈ 0.438 µM) | 0.5 (≈ 0.876 µM) | 8 (≈ 14 µM) | 0.25 (≈ 0.438 µM) | 16 (≈ 28 µM) | 8 (≈ 14 µM) | 8 (≈ 14 µM)
CCCCCCCCn1cc(/C=C(\C#N)C(=O)N2CCN(c3cc4c(cc3F)c(=O)c(C(=O)O)cn4CC)CC2)c2ccccc21 | 32 (≈ 51.1 µM) | 1 (≈ 1.6 µM) | 2 (≈ 3.2 µM) | 1 (≈ 1.6 µM) | 4 (≈ 6.39 µM) | 64 (≈ 102 µM) | 0.25 (≈ 0.4 µM) | 0.5 (≈ 0.799 µM) | 1 (≈ 1.6 µM) | 16 (≈ 25.6 µM) | 8 (≈ 12.8 µM)
CCn1cc(C(=O)O)c(=O)c2cc(F)c(N3CCN(C(=O)/C(C#N)=C/c4cn(CC5CCC5)c5ccccc45)CC3)cc21 | 4 (≈ 6.88 µM) | 0.25 (≈ 0.43 µM) | 0.25 (≈ 0.43 µM) | 0.5 (≈ 0.86 µM) | 0.5 (≈ 0.86 µM) | 0.5 (≈ 0.86 µM) | 0.25 (≈ 0.43 µM) | 0.25 (≈ 0.43 µM) | 0.25 (≈ 0.43 µM) | 0.25 (≈ 0.43 µM) | 0.25 (≈ 0.43 µM)
CCn1cc(C(=O)O)c(=O)c2cc(F)c(N3CCN(C(=O)/C(C#N)=C/c4c[nH]c5ccc(Cl)cc45)CC3)cc21 | 0.25 (≈ 0.456 µM) | 1 (≈ 1.82 µM) | 1 (≈ 1.82 µM) | 1 (≈ 1.82 µM) | 0.25 (≈ 0.456 µM) | 0.25 (≈ 0.456 µM) | 16 (≈ 29.2 µM) | 1 (≈ 1.82 µM) | 2 (≈ 3.65 µM) | 2 (≈ 3.65 µM) | 1 (≈ 1.82 µM)
CCn1cc(/C=C(\C#N)C(=O)N2CCN(c3cc4c(cc3F)c(=O)c(C(=O)O)cn4CC)CC2)c2ccccc21 | 1 (≈ 1.85 µM) | 0.25 (≈ 0.462 µM) | 0.25 (≈ 0.462 µM) | 0.5 (≈ 0.923 µM) | 2 (≈ 3.69 µM) | 64 (≈ 118 µM) | 0.25 (≈ 0.462 µM) | 0.25 (≈ 0.462 µM) | 0.25 (≈ 0.462 µM) | 4 (≈ 7.39 µM) | 1 (≈ 1.85 µM)
CCOC(=O)Cn1cc(/C=C(\C#N)C(=O)N2CCN(c3cc4c(cc3F)c(=O)c(C(=O)O)cn4CC=C(C)C)CC2)c2ccccc21 | 16 (≈ 25 µM) | 16 (≈ 25 µM) | 1 (≈ 1.56 µM) | 0.25 (≈ 0.391 µM) | 0.5 (≈ 0.782 µM) | 32 (≈ 50 µM) | 16 (≈ 25 µM) | 8 (≈ 12.5 µM) | 8 (≈ 12.5 µM) | 16 (≈ 25 µM) | 16 (≈ 25 µM)
CCn1cc(C(=O)O)c(=O)c2cc(F)c(N3CCN(C(=O)/C(C#N)=C/c4cn(CC5CCCC5)c5ccccc45)CC3)cc21 | 1 (≈ 1.68 µM) | 16 (≈ 26.9 µM) | 0.5 (≈ 0.839 µM) | 8 (≈ 13.4 µM) | 1 (≈ 1.68 µM) | 4 (≈ 6.72 µM) | 1 (≈ 1.68 µM) | 32 (≈ 53.7 µM) | 2 (≈ 3.36 µM) | 0.5 (≈ 0.839 µM) | 16 (≈ 26.9 µM)
CCn1cc(C(=O)O)c(=O)c2cc(F)c(N3CCN(C(=O)/C(C#N)=C/c4cn(CC(=O)N5CCOCC5)c5ccccc45)CC3)cc21 | 0.25 (≈ 0.39 µM) | 8 (≈ 12.5 µM) | 1 (≈ 1.56 µM) | 1 (≈ 1.56 µM) | 0.5 (≈ 0.78 µM) | 0.5 (≈ 0.78 µM) | 2 (≈ 3.12 µM) | 2 (≈ 3.12 µM) | 4 (≈ 6.24 µM) | 1 (≈ 1.56 µM) | 0.5 (≈ 0.78 µM)
